Reference: patent US12180255B2, “Compositions and methods for derepressing RE1 silencing transcription factor target genes” (Alcamena Stem Cell Therapeutics, LLC, priority 2019, dated 2024)
Where a SMILES comes first, the peptide text is derived from it. Where no end group is shown, it is not given here. [ ]: non-standard residue; d: D form. ξ: configuration not given here. ξGly(dodecyl) = CCCCCCCCCCCCC(N)C(=O)O

Legend:
[1] = Localization in spinal cord after injection at sciatic nerve defect; conditions: 1 mg injected into site of sciatic nerve defect, 48 hours
Protocol: FIG. 5. […] A 0.7 cm coronal spinal cord section from the […] region of a Sprague Dawley (SD) male rat showing the surrounding nuclei of the sciatic nerve, harvested 48 hours after 1 mg (1 mg/mL) of peptide was injected into the sight of a mid-thigh sciatic nerve defect injury.
Dosing and Procedure. […] After 48 hours, the animal was sacrificed and the spinal cord from the L4 to L6 region was sectioned coronally.
Immunohistochemistry. Hoechst 333429 (Calbiochem) dye was used to visualize the nucleus, and FLAG antibody (Sigma-Aldrich) was used to visualize the RPP. Images were taken with a light microscope.

[2] = system: iPSCs (neural stem cells (NSC)-NL5); assay: Neuronal differentiation of iPSC NSC-NL5 (MAP2, TUJ1 normalized to DAPI); assay type: cell-based, human; conditions: 7 days
Protocol: FIG. 11. iPSCs (neural stem cells (NSC)-NL5) were dosed with one of the RPP sequences (3 μM) or water control shown below. After 7 days in culture, cells were assessed for neuronal differentiation using the Microtubule Associated Protein 2 (MAP2) neuronal marker (normalized to DAPI). Media and variants were replaced on Day 3. MAP2 levels are relative to control in the bar graph (standard deviation n=4).
FIG. 12. iPSCs (neural stem cells (NSC)-NL5) were with 1 μM RPP (SEQ ID NO. 9) or water control. After 7 days in culture, cells were assessed for neuronal differentiation using neuronal markers TUJ1 (class III beta-tubulin) and MAP2 (both normalized to DAPI). Media and RPP were replaced on Day 3. (standard deviation, n=6).
FIG. 13. iPSCs (neural stem cells (NSC)-NL5) were with 1 μM RPP (SEQ ID NO. 13) or water control. After 7 days in culture, cells were assessed for neuronal differentiation using neuronal markers TUJ1 and MAP2 (both normalized to DAPI). Media and RPP were replaced on Day 3. (standard deviation, n=6).
Approach 2: Induced pluripotent stem cells (neural stem cells (NSC)-NL5) differentiate after 7 Days of RPP dosing (FIG. 11 (SEQ ID NOS: 5-11, 3 μM); FIG. 12 (SEQ ID NO: 9, 1 μM) FIG. 13 (SEQ ID NO: 13 (FIG. 27), 1 μM)) using the following “Neuron to Blank” protocol: • 1. 24 well culture plates (Black Visiplate) were coated with Matrigel ([…] for 30 minutes at 37° C.). • 2. NSCs-NLS (see media below) were plated at 0.5×10^5 per well.
• 3. After 24 hours (cells should be >70% confluent), the media was changed to neuronal differentiation medium (below) with various concentrations of test peptides or water control added (FIGS. 11, 12, and 13, Table 14). The neuronal differentiation medium, with new test peptides and control, was changed every 2 days for 5 days.
• 4. On Day 7 cells were fixed 4% formaldehyde in 1×PBS for 30 minutes. • 5. Cells were immunolabeled with mouse anti-TUJ1 (1:1000) and rabbit anti-Map2 (1:500) overnight. Then label with 2nd antibody (anti-mouse488, anti-rabbit568 and DAPi) for 1 hour. • 6. Data was collected on a BioTek plate reader • a. Dapi: Excitation 360/40; Emission 460/20, Gain 35; • b. Alexa 488: Excitation 485/20; Emission 528/20, Gain 50; • c. Alexa 568: Excitation 560/20; Emission 620/10, Gain 75).

L5 DRGs = assay: qRT-PCR mRNA expression in ex vivo cultured L5 DRGs; assay type: cell-based, Sprague Dawley rat; conditions: DRG; 1 μM; 48 h
Protocol: FIG. 15. […] Error bars =standard error of the mean.
L5 DRGs were dissected from adult male rats and plated in 12-well plates pre-coated with poly-D-Lysine (PDL) and laminin in a minimal volume of medium (250 ul Neurobasal™-A medium (GIBCO) supplemented with B27 (GIBCO), 50 ng/ml NGF (Sigma-Aldrich) and penicillin streptomycin) to allow attachment to the culture plate. One day after plating, DRGs were incubated with RPP (SEQ. ID NO: 12: 1 μM, 3 μM or 10 μM in culture medium, FIGS. 14 and 16; SEQ ID NOS: 13 and 14: 3 μM, FIG. 15) for 48 h. For RNA expression analysis, DRGs were lysed in 300 μl of Qiazol in a 1.5 ml tube containing Bullet Blender Pink Beads using a Bullet Blender Tissue Homogenizer (NextAdvance). Total RNA was extracted using RNeasy Midi Kit (Qiagen) according to manufacturer's instructions. Purified RNA was quantified with NanoDrop 2000 (ThermoFIsher), and reverse transcription was run using High Capacity cDNA Reverse Transcription Kit (Applied Biosystems) and 2 ng/ul RNA per reaction. For qRT-PCR, 5 ul of cDNA (corresponding to 10 ng of RNA) were mixed with to 10 ul SsoAdvanced™ Universal SYBR® Green Supermix (BioRad) and 1 ul of each primer (final primer concentration 500 nM each). Reactions were run in triplicates in a QuantStudio™ 7 Flex Real-Time PCR system (Applied Biosystems). Amplification data were analyzed using the comparative cycle threshold (ΔΔCt) method and β-actin as calibrator. Primers were as follows: β-actin: F-[…] (SEQ ID NO: 340), R-[…] (SEQ ID NO: 333); KV4.3: F-[…] (SEQ ID NO: 341), R-[…] (SEQ ID NO: 342); KV7.2 F-[…] AG (SEQ ID NO: 343), R-[…] (SEQ ID NO: 344); OPRM1: F-[…] (SEQ ID NO: 345), R-[…] (SEQ ID NO: 346).

His-CTDSP1 = molecular target: T1, His-CTDSP1 (Homo sapiens, UniProt Q9GZU7); assay: Binding affinity of RPP for CTDSP1, Monolith (NanoTemper); conditions: His-CTDSP1 40 nM labelled with RED-tris NTA dye 20 nM
T1 construct: made in house; host or cells: E. coli 10G (Lucigen), pBAD-HisA
T1 sequence (Q9GZU7 with tags, fused parts or gaps): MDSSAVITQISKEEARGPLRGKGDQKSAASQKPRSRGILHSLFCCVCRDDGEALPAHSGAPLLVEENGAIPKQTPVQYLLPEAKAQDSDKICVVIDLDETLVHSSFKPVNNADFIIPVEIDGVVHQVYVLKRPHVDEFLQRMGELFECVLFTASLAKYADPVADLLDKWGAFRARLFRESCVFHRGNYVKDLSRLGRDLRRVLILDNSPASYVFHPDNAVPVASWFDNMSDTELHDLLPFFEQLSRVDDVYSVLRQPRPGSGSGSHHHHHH
Protocol: FIG. 2. Binding affinity of the REST phosphomimetic peptide (RPP) for CTDSP1 was measured using the Monolith (NanoTemper). […] Binding was assessed by fluorescently labelling the His tag on CTDSP1 (40 nM) with RED-tris NTA dye (20 nM) and measuring the change in fluorescents when RPP (up to […]) is bound.
Expression constructs for His-CTDSPL (Table 2; SEQ ID NO: 162) and GST-RPP (Table 4; SEQ ID NO: 164) were constructed and purified as described in Example 2. The His tag on CTDSP1 (40 nM) was labelled with RED-tris NTA dye (20 nM), with a […] dye to CTDSP1 ratio, and unbound dye was removed by gravity-flow size exclusion. Binding affinity of the linear GST-RPP (Table 4; SEQ ID NO: 165) to His-CTDSP1 (Table 2; SEQ ID NO:163) was determined using Monolith (NanoTemper), following manufacturer recommendations. Results of the binding assay are presented in FIG. 2: The RPP (Table 4; SEQ ID NO: 165) was assessed for binding to His-CTDSP1 at several concentrations ranging from low pM up to 0.5 μM.

NBFL cells = assay: KV4.3 mRNA in NBFL cells transfected with plasmid expressing RPP; assay type: cell-based
Protocol: FIG. 8. mRNA levels of KV4.3 in NBFL cells 48 h after CTDSP1 inhibition. Cells were transfected with a plasmid expressing RPP (SEQ ID NO: 1) with GFP (+) or a control peptide with GFP (−). 24 hours after transfection, cells were sorted based on fluorescence intensity. Error bars represent standard deviation, n=2.
Transient Transfections and Cell Culture. NBFL cells were grown as previously described^120. 0.5 M NFBL cells were seeded on a 35 mm dish, incubated at 37° C. overnight, and transfected with 2 μg of REST (SEQ. ID NO: 1)-IRES-GFP cDNA^2 using lipofectamine2000 (Life Technologies), following manufacturer recommendations. After a 48 hour incubation period, cell were sorted by fluorescence activated cell sorting (FACS),
mRNA extraction and quantification. mRNA was extracted, as described in Example 10, from GFP+ and − cells; mRNA levels of KV4.3 were determined using real-time RT-PCR^116. Gene expression was normalized using β-actin (ACTB) as an internal housekeeping control. The β-actin primers used are the same as Example 10. The KV4.3 primers were: forward: […] (SEQ ID NO: 336) and reverse: […] (SEQ ID NO: 337).

[3] = system: mesenchymal progenitor cells (MPCs); assay: BDNF and NGF mRNA expression in MPCs; assay type: cell-based, human; conditions: MPC, 3 μM
Protocol: FIG. 10. BDNF and NGF mRNA expression (normalized to actin) in mesenchymal progenitor cells (MPCs), from two patients, after a 48 hour incubation with water (Ctrl) or […] RPP (SEQ. ID NO: 9). mRNA levels are shown relative to control (standard deviation, n=2).
Mesenchymal progenitor cells (MPCs) (FIG. 10) from two patients were plated on 12 well plates and cultured in general medium (GM) (DMEM, 10% FBS, PSF). Lyophilized RPP (SEQ ID NO: 9) was dissolved in water at a concentration of 5 mM (1 mg/34.89, diluted in medium to 3 μM, and then incubated with the cell for 48 hours. The control was water.
MPCs were cultured as described in Gervasi et al., 2020^76.

CC(C)C[C@H](NC(=O)[C@H](CC(=O)O)NC(=O)[C@H](CCC(=O)O)NC(=O)[C@@H](NC(=O)[C@H](CCCCN)NC(=O)[C@H](CC(=O)O)NC(=O)[C@H](CC(=O)O)NC(=O)[C@H](CC(=O)O)NC(=O)[C@H](CC(=O)O)NC(=O)[C@H](CCCCN)NC(=O)[C@H](Cc1ccc(O)cc1)NC(=O)[C@H](CC(=O)O)NC(=O)[C@H](CCCCN)NC(=O)[C@H](CCC(N)=O)NC(=O)[C@H](C)NC(=O)[C@@H](N)CS)[C@@H](C)O)C(=O)N[C@@H](CCC(=O)O)C(=O)N1CCC[C@H]1C(=O)N1CCC[C@H]1C(=O)N[C@@H](CCC(=O)O)C(=O)N1CCC[C@H]1C(=O)N1CCC[C@H]1C(=O)N[C@@H](CC(C)C)C(=O)N1CCC[C@H]1C(=O)N[C@@H](CCCCN)C(=O)N[C@@H](CCC(=O)O)C(=O)N[C@@H](CC(N)=O)C(=O)NCC(=O)N[C@@H](CCCNC(=N)N)C(=O)N[C@@H](CCCCN)C(=O)N[C@@H](CCCCN)C(=O)N[C@@H](CCCNC(=N)N)C(=O)N[C@@H](CCCNC(=N)N)C(=O)N[C@@H](CCC(N)=O)C(=O)N[C@@H](CCCNC(=N)N)C(=O)N[C@@H](CCCNC(=N)N)C(=O)N[C@@H](CCCNC(=N)N)C(=O)NCC(=O)O [SEQ ID NO: 4] (H-CAQKDYKDDDDKTEDLEPPEPPLPKENGRKKRRQRRRG-OH; N-terminus and C-terminus assumed)
localization in nuclei of sciatic nerve neurons in spinal cord [1]: accumulates in the nuclei of the sciatic nerve in spinal cord | localization in nuclei of sciatic nerve neurons in spinal cord ([1]; listed as Linear RPP): accumulates in the nucleus of sciatic nerve tissue

SEQ ID NO: 13: CPP with poly arginine sequence and two 2-aminotetradecanoic acids integrated with the REST RI phosphomimetic ([dR][dR][ξGly(dodecyl)][dR][dR][ξGly(dodecyl)][dR][dR][dR][dR][dR][dK][dP][dL][dP][dP][dE][dP][dP][dE][dL][dD][dE])
increase of differentiation, MAP2 normalized to DAPI ([2]; 0.1 μM): 27% | increase of differentiation, TUJ1 normalized to DAPI ([2]; 0.1 μM): 60% | increase of differentiation, MAP2 normalized to DAPI ([2]; 1 μM): 2 times | increase of differentiation, TUJ1 normalized to DAPI ([2]; 1 μM): 3 times | Increase, Nav1.8 mRNA (L5 DRGs): 6x

SEQ ID NO: 165: RPP-GST fusion protein, MCTEDLEPPEPPLPKENC linked to GST (Table 4)
Kd (His-CTDSP1): ~0.13 nM

TEDLEPPEPPLPKEN [SEQ ID NO: 1, REST phosphomimetic peptide (RPP)]
increase in KV4.3 mRNA (NBFL cells; NBFL cells transfected with RPP): 2 fold | Increase, KV4.3 mRNA (NBFL cells; NBFL, 2 μg (transfected), 48 h): 3x

rrrrwrrwwrrwrrnekplppeppeldet ([dR][dR][dR][dR][dW][dR][dR][dW][dW][dR][dR][dW][dR][dR][dN][dE][dK][dP][dL][dP][dP][dE][dP][dP][dE][dL][dD][dE][dT]) [SEQ ID NO: 9]
Increase, BDNF mRNA ([3]; 48 h): 2x | Increase, NGF mRNA ([3]; 48 h): 2.9x | increase of BDNF relative to water control ([3]; 48 hours): approximately 2 times | increase of NGF relative to water control ([3]; 48 hours): ~3 times
